Results as given in article PMC5430874 (Scientific Reports, 2017).
Residue numbers refer to the chain shown, from its start.

Experiments:
Format in all cases: cell-based
[1] = biological target: T1, GPR139 E108A3x29 +E105A3x32 (Homo sapiens, UniProt Q6DWJ6, E105A/E108A); assay: Fluo-4 Ca2+-assay, GPR139 double mutant E105A_E108A
T1 construct: mGluR5 signal peptide (N); expressed in transfected cells; host or cells: HEK293
T1 sequence (Q6DWJ6 2-353 E105A/E108A limits assumed): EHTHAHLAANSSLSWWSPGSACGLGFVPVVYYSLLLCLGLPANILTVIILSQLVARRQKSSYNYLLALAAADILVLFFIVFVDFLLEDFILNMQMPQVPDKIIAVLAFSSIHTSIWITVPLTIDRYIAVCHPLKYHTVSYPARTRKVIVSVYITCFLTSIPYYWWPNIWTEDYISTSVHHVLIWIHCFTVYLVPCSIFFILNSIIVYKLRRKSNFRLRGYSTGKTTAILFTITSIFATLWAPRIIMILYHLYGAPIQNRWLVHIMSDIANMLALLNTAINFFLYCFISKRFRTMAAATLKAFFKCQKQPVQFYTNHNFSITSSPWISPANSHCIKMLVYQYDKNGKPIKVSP
Source text: (§1) To study the influence of specific amino acids in the predicted binding pocket on receptor function, the desired mutations were introduced into an N-terminally c-myc-tagged wild type human GPR139 (NM_001002911.3) in the pEGFP-N1 vector (BD Biosciences)[32], [33]. As previously described, these plasmids carry the signal peptide of mGluR5 to promote cell surface expression followed by a c-myc epitope to enable detection of total and surface expression by ELISA, followed by an engineered MluI and NotI site for easy insertion of the receptor of interest. Furthermore, the start-codon in the GPR139 sequence was deleted to ensure c-myc-tagging. […]
(§2) The Ca^2+ measurements were preformed using the Fluo-4 NW Calcium Assay Kit (Invitrogen, Molecular Probes, F36206) as previously described. […] Intracellular calcium changes were recorded as indicated on either a NOVOstar (BMG Labtech) at 37 °C with an excitation filter of 485 nm and an emission filters 520 nm or a FlexStation 3 Benchtop Multi-Mode Microplate Reader (Molecular Devices) at 37 °C with an excitation wavelength of 485 nm and emission of 525 nm.
(§3) All pharmacological data have been analyzed by using Prism 6.0 (GraphPad Software Inc., San Diego). […] Changes in potency (pEC50) and span of myc-GPR139(WT) in comparison to untagged GPR139(WT) was statistically analyzed with a paired t-test and significance was accepted at p < 0.05. […]

untagged GPR139(WT) = biological target: T2, untagged GPR139(WT) (Homo sapiens, UniProt Q6DWJ6); assay: Fluo-4 Ca2+-assay, untagged wild-type GPR139 in HEK293; details: untagged WT receptor
T2 construct: expressed in transfected cells; host or cells: HEK293
T2 sequence (Q6DWJ6 1-353): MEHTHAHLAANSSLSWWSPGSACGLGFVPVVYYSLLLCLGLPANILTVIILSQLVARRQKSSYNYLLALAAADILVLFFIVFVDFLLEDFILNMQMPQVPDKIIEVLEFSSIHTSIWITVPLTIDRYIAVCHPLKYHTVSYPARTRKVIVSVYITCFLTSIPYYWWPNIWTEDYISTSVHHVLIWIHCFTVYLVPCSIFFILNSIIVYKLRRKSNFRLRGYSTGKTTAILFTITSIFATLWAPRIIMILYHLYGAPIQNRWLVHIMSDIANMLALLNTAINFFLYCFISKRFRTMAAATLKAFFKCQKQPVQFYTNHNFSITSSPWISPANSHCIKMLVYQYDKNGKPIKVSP
Source text: as §1, §2, §3

GPR139 E108Q3x32 = biological target: T3, GPR139 E108Q3x32 (Homo sapiens, UniProt Q6DWJ6, E108Q); assay: Fluo-4 Ca2+-assay, GPR139 mutant E108Q
T3 construct: mGluR5 signal peptide (N); expressed in transfected cells; host or cells: HEK293
T3 sequence (Q6DWJ6 2-353 E108Q limits assumed): T1 sequence (Q6DWJ6 2-353 E105A/E108A limits assumed) with A104E, A107Q
Source text: To study the influence of specific amino acids in the predicted binding pocket on receptor function, the desired mutations were introduced into an N-terminally c-myc-tagged wild type human GPR139 (NM_001002911.3) in the pEGFP-N1 vector (BD Biosciences)[32], [33]. As previously described, these plasmids carry the signal peptide of mGluR5 to promote cell surface expression followed by a c-myc epitope to enable detection of total and surface expression by ELISA, followed by an engineered MluI and NotI site for easy insertion of the receptor of interest. Furthermore, the start-codon in the GPR139 sequence was deleted to ensure c-myc-tagging. Mutagenesis was designed in Serial Cloner 2.6 (© Franck Perez [SerialBasics]) and carried out by GenScript (USA). All mutated residues are illustrated in Supplementary Fig. 1b. An untagged GPR139(WT) in pEGFP-N1 was also generated to ensure that the c-myc-tag had no influence on GPR139(WT) function.
All GPR139 mutants were transfected into HEK293 cells. The HEK293 cells were grown in Dulbecco’s modified Eagle’s medium (DMEM) (Gibco, 41965) supplemented with 10% dialyzed fetal bovine serum (Gibco, 26400, United States origin), 100 units/mL penicillin and 100 μg/mL streptomycin (Gibco, 15140). HEK293 cells were reverse transfected using Lipofectamine2000 (Invitrogen). […]
as §2, §3

Work on `COc1cc(OC)cc(C(=O)NNC(=O)Nc2cccc3ccccc23)c1` [Compound 1a] yielded an EC50 [1] of 200 nM, an Emax ([1]; normalized to buffer (0%) and 8 µM 1a (100%)) of 196 ± 25% and an EC50 (untagged GPR139(WT)) of 772 nM. It also gave an EC50 (GPR139 E108Q3x32; E108Q mutant) of 1510 nM, a potency reduction (GPR139 E108Q3x32; E108Q mutant versus WT) of 6 fold and an Emax (GPR139 E108Q3x32; E108Q, normalized to buffer (0%) and 8 µM 1a (100%)) of 217 ± 21%.
